Test system: 485176-168-R4-J1-PDC complex spheroid growth
Assay: Anticancer human tumor 485176-168-R4-J1-PDC patient-derived pancreatic adenocarcinoma cell line growth inhibition [RAS]
Conditions: for IC50: curve of first compound; for viability, T/C: stronger effect = lower value; active = viability on the fitted dose curve at most 10% of control; inactive = the rest
Outline: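 Tumour cells grown as complex spheroids with HUVEC endothelial cells and mesenchymal stem cells, treated with RAS pathway inhibitor combinations. Each agent spans half-log steps from near clinical Cmax, or 10 microM where Cmax is unknown.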

[1] = second compound 0.000949 µM, first compound 0.0316 µM
[2] = second compound 0.000949 µM, first compound 0.1 µM
[3] = second compound 0.000949 µM, first compound 0.316 µM
[4] = second compound 0.000949 µM, first compound 1 µM
[5] = second compound 0.000949 µM, first compound 3.16 µM
[6] = second compound 0.000949 µM, first compound 10 µM
[7] = second compound 0.003 µM, first compound 0.0316 µM
[8] = second compound 0.003 µM, first compound 0.1 µM
[9] = second compound 0.003 µM, first compound 0.316 µM
[10] = second compound 0.003 µM, first compound 1 µM
[11] = second compound 0.003 µM, first compound 3.16 µM
[12] = second compound 0.003 µM, first compound 10 µM
[13] = second compound 0.00949 µM, first compound 0.0316 µM
[14] = second compound 0.00949 µM, first compound 0.1 µM
[15] = second compound 0.00949 µM, first compound 0.316 µM
[16] = second compound 0.00949 µM, first compound 1 µM
[17] = second compound 0.00949 µM, first compound 3.16 µM
[18] = second compound 0.00949 µM, first compound 10 µM
[19] = second compound 0.03 µM, first compound 0.0316 µM
[20] = second compound 0.03 µM, first compound 0.1 µM
[21] = second compound 0.03 µM, first compound 0.316 µM
[22] = second compound 0.03 µM, first compound 1 µM
[23] = second compound 0.03 µM, first compound 3.16 µM
[24] = second compound 0.03 µM, first compound 10 µM
[25] = second compound 0.0949 µM, first compound 0.0316 µM
[26] = second compound 0.0949 µM, first compound 0.1 µM
[27] = second compound 0.0949 µM, first compound 0.316 µM
[28] = second compound 0.0949 µM, first compound 1 µM
[29] = second compound 0.0949 µM, first compound 3.16 µM
[30] = second compound 0.0949 µM, first compound 10 µM
[31] = second compound 0.3 µM, first compound 0.0316 µM
[32] = second compound 0.3 µM, first compound 0.1 µM
[33] = second compound 0.3 µM, first compound 0.316 µM
[34] = second compound 0.3 µM, first compound 1 µM
[35] = second compound 0.3 µM, first compound 3.16 µM
[36] = second compound 0.3 µM, first compound 10 µM
[37] = second compound 0.000949 µM, first compound 0.00316 µM
[38] = second compound 0.000949 µM, first compound 0.01 µM
[39] = second compound 0.003 µM, first compound 0.00316 µM
[40] = second compound 0.003 µM, first compound 0.01 µM
[41] = second compound 0.00949 µM, first compound 0.00316 µM
[42] = second compound 0.00949 µM, first compound 0.01 µM
[43] = second compound 0.03 µM, first compound 0.00316 µM
[44] = second compound 0.03 µM, first compound 0.01 µM
[45] = second compound 0.0949 µM, first compound 0.00316 µM
[46] = second compound 0.0949 µM, first compound 0.01 µM
[47] = second compound 0.3 µM, first compound 0.00316 µM
[48] = second compound 0.3 µM, first compound 0.01 µM
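Also: spheroids exposed to compounds for seven days before readout.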
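For viability, T/C in this document: luminescence viability expressed relative to DMSO vehicle wells set as 100%.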

CC(C)NCC(C(=O)N1CCN(c2ncnc3c2C(C)CC3O)CC1)c1ccc(Cl)cc1 (stereo not drawn) + CCn1c(-c2cccnc2C(C)OC)c2c3cc(ccc31)N1CCOC(CC(NC(=O)C(C(C)C)N(C)C(=O)C3(F)CCN(C(=O)C#CC(C)(C)N(C)C)CC3)C(=O)N3CCCC(N3)C(=O)OCC(C)(C)C2)C1
1180 nM: IC50 (second compound 0.03 µM)
1250 nM: IC50 (second compound 0.00949 µM)
inactive: viability, T/C [1] 98.8% | viability, T/C [2] 86% | viability, T/C [3] 79.7% | viability, T/C [4] 60% | viability, T/C [5] 44.9% | viability, T/C [6] 30% | viability, T/C [7] 98.4% | viability, T/C [8] 91% | viability, T/C [9] 76.7% | viability, T/C [10] 59.1% | viability, T/C [11] 39.6% | viability, T/C [12] 28.9% | viability, T/C [13] 91.8% | viability, T/C [14] 103% | viability, T/C [15] 73% | viability, T/C [16] 52.6% | viability, T/C [17] 45.4% | viability, T/C [18] 31.2% | viability, T/C [19] 84.5% | viability, T/C [20] 91.1% | viability, T/C [21] 74.1% | viability, T/C [22] 53.7% | viability, T/C [23] 34.7% | viability, T/C [24] 32.4% | viability, T/C [25] 94% | viability, T/C [26] 90.7% | viability, T/C [27] 78.7% | viability, T/C [28] 50.4% | viability, T/C [29] 40.9% | viability, T/C [30] 26.9% | viability, T/C [31] 73.6% | viability, T/C [32] 81% | viability, T/C [33] 51.7% | viability, T/C [34] 40.6% | viability, T/C [35] 27.3% | viability, T/C [36] 17.6%
510 nM: IC50 (second compound 0.3 µM)
2210 nM: IC50 (second compound 0.000949 µM)
1290 nM: IC50 (second compound 0.0949 µM)
1700 nM: IC50 (second compound 0.003 µM)

CC(C)n1nc(-c2ccc3oc(N)nc3c2)c2c(N)ncnc21 + CCn1c(-c2cccnc2C(C)OC)c2c3cc(ccc31)N1CCOC(CC(NC(=O)C(C(C)C)N(C)C(=O)C3(F)CCN(C(=O)C#CC(C)(C)N(C)C)CC3)C(=O)N3CCCC(N3)C(=O)OCC(C)(C)C2)C1
inactive: viability, T/C (second compound 0.000949 µM, first compound 0.000316 µM) 104% | viability, T/C (second compound 0.000949 µM, first compound 0.001 µM) 81.1% | viability, T/C [37] 93.7% | viability, T/C [38] 75.7% | viability, T/C [1] 38.5% | viability, T/C [2] 17.7% | viability, T/C (second compound 0.003 µM, first compound 0.000316 µM) 82.1% | viability, T/C (second compound 0.003 µM, first compound 0.001 µM) 79.9% | viability, T/C [39] 85.5% | viability, T/C [40] 72.5% | viability, T/C [7] 48.1% | viability, T/C [8] 21.4% | viability, T/C (second compound 0.00949 µM, first compound 0.000316 µM) 88.1% | viability, T/C (second compound 0.00949 µM, first compound 0.001 µM) 89.4% | viability, T/C [41] 84.1% | viability, T/C [42] 61.8% | viability, T/C [13] 43.9% | viability, T/C [14] 16% | viability, T/C (second compound 0.03 µM, first compound 0.000316 µM) 85.5% | viability, T/C (second compound 0.03 µM, first compound 0.001 µM) 84.5% | viability, T/C [43] 85.7% | viability, T/C [44] 62.6% | viability, T/C [19] 33% | viability, T/C [20] 18.6% | viability, T/C (second compound 0.0949 µM, first compound 0.000316 µM) 90.5% | viability, T/C (second compound 0.0949 µM, first compound 0.001 µM) 86.9% | viability, T/C [45] 69% | viability, T/C [46] 65% | viability, T/C [25] 36.9% | viability, T/C [26] 19.9% | viability, T/C (second compound 0.3 µM, first compound 0.000316 µM) 76.9% | viability, T/C (second compound 0.3 µM, first compound 0.001 µM) 72.8% | viability, T/C [47] 59.3% | viability, T/C [48] 44.1% | viability, T/C [31] 34.1% | viability, T/C [32] 14.2%
28.6 nM: IC50 (second compound 0.003 µM)
17.4 nM: IC50 (second compound 0.0949 µM)
7.54 nM: IC50 (second compound 0.3 µM)
16.6 nM: IC50 (second compound 0.03 µM)
21.3 nM: IC50 (second compound 0.00949 µM)
22.2 nM: IC50 (second compound 0.000949 µM)

CC(Nc1ccc2c(c1)OCCn1cc(N3C(=O)OCC3C(F)F)nc1-2)C(N)=O (stereo not drawn) + CCn1c(-c2cccnc2C(C)OC)c2c3cc(ccc31)N1CCOC(CC(NC(=O)C(C(C)C)N(C)C(=O)C3(F)CCN(C(=O)C#CC(C)(C)N(C)C)CC3)C(=O)N3CCCC(N3)C(=O)OCC(C)(C)C2)C1
8610 nM: IC50 (second compound 0.000949 µM)
5260 nM: IC50 (second compound 0.3 µM)
9140 nM: IC50 (second compound 0.00949 µM)
8690 nM: IC50 (second compound 0.003 µM)
inactive: viability, T/C [1] 92.9% | viability, T/C [2] 73.4% | viability, T/C [3] 93.6% | viability, T/C [4] 77.1% | viability, T/C [5] 84.2% | viability, T/C [6] 45% | viability, T/C [7] 97.2% | viability, T/C [8] 86.6% | viability, T/C [9] 85.7% | viability, T/C [10] 74.5% | viability, T/C [11] 85.4% | viability, T/C [12] 45.2% | viability, T/C [13] 94.4% | viability, T/C [14] 79.2% | viability, T/C [15] 77.6% | viability, T/C [16] 70.9% | viability, T/C [17] 98.3% | viability, T/C [18] 47.1% | viability, T/C [19] 76.8% | viability, T/C [20] 94.1% | viability, T/C [21] 88.9% | viability, T/C [22] 73.4% | viability, T/C [23] 76.1% | viability, T/C [24] 56.5% | viability, T/C [25] 90.4% | viability, T/C [26] 67.9% | viability, T/C [27] 75.8% | viability, T/C [28] 51.9% | viability, T/C [29] 89.6% | viability, T/C [30] 57% | viability, T/C [31] 61.5% | viability, T/C [32] 73.4% | viability, T/C [33] 60.4% | viability, T/C [34] 61.5% | viability, T/C [35] 59.2% | viability, T/C [36] 39.9%
> 10000 nM: IC50 (second compound 0.03 µM) | IC50 (second compound 0.0949 µM)

O=C(c1ccc(F)c(F)c1Nc1ccc(I)cc1F)N1CC(O)([C@@H]2CCCCN2)C1 + CCn1c(-c2cccnc2C(C)OC)c2c3cc(ccc31)N1CCOC(CC(NC(=O)C(C(C)C)N(C)C(=O)C3(F)CCN(C(=O)C#CC(C)(C)N(C)C)CC3)C(=O)N3CCCC(N3)C(=O)OCC(C)(C)C2)C1
409 nM: IC50 (second compound 0.003 µM)
154 nM: IC50 (second compound 0.00949 µM)
142 nM: IC50 (second compound 0.0949 µM)
235 nM: IC50 (second compound 0.03 µM)
349 nM: IC50 (second compound 0.000949 µM)
32.6 nM: IC50 (second compound 0.3 µM)
inactive: viability, T/C [37] 90.4% | viability, T/C [38] 79% | viability, T/C [1] 86.3% | viability, T/C [2] 61.4% | viability, T/C [3] 53.8% | viability, T/C [4] 39.9% | viability, T/C [39] 79.3% | viability, T/C [40] 65.8% | viability, T/C [7] 73.2% | viability, T/C [8] 58% | viability, T/C [9] 50.9% | viability, T/C [10] 43.7% | viability, T/C [41] 77.8% | viability, T/C [42] 85.8% | viability, T/C [13] 68.6% | viability, T/C [14] 55% | viability, T/C [15] 43.4% | viability, T/C [16] 36% | viability, T/C [43] 97.1% | viability, T/C [44] 89.8% | viability, T/C [19] 69.3% | viability, T/C [20] 51.9% | viability, T/C [21] 56.7% | viability, T/C [22] 36.7% | viability, T/C [45] 89.7% | viability, T/C [46] 64.1% | viability, T/C [25] 68.6% | viability, T/C [26] 53.6% | viability, T/C [27] 44.2% | viability, T/C [28] 32.3% | viability, T/C [47] 67.2% | viability, T/C [48] 70.8% | viability, T/C [31] 50.2% | viability, T/C [32] 45.6% | viability, T/C [33] 40% | viability, T/C [34] 39.5%

Source: PubChem BioAssay AID2060906 (Molecular Pharmacology Branch, DTP, NCI, 2025)
